In experiment [1] the test system is normal lung fibroblasts (NLF). Nature of the experiment: Collagen and ASMA expression in NLF treated with CSD and its subdomains. It counts as cell-based, human. The conditions noted are these: for ASMA expression: peptides at 1, 3, and 5 μM. The protocol: (§1) The indicated cell types (NLF and SLF) were cultured as described with 0, 1, 3, or 5 μM of the indicated peptides. Collagen in the medium and ASMA and actin (loading control) in the cell layer were detected by Western blotting. Blots were quantified densitometrically. The level of collagen and ASMA in cells treated with no peptide (divided by the level of actin) was set to 100 arbitrary units. Because SLF express higher levels of collagen and ASMA than do NLF, 100 arbitrary of collagen in SLF is equivalent to 195 arbitrary units of collagen in NLF and 100 arbitrary units of ASMA in SLF is equivalent to 255 arbitrary units of ASMA in NLF. The data presented are the average of the densitometric quantification of three independent experiments.
(§2) To compare the activity of CSD to its subdomains, five subdomains [A (82-88 amino acids), B (89-95), C (96-101), AB (82-95) and BC (89-101)] were synthesized in fusion with the Antennapedia internalization sequence and added to culture medium at 1, 3, and 5 μM. […] Very different results were obtained when examining ASMA expression.

Experiment [2] has as its system scleroderma lung fibroblasts (SLF). Nature of the experiment: Collagen and ASMA expression in SLF treated with CSD and its subdomains. Format: cell-based, human. The conditions noted are these: for ASMA expression: peptides at 1, 3, and 5 μM; for inhibition of ASMA expression / inhibition of collagen expression: 5 μM peptide. As to the method:
as §1, §2

The subject of the next experiment is eNOS. The settings on record: endothelial cells; Bernatchez et al. (4); cited from earlier work.
The subject of experiment [3] is normal lung fibroblasts (NLF). Nature of the experiment: Kinase (signaling) inhibitor treatment of NLF, Western blotting. Also on record: key to Collagen / Tenascin-C / ASMA / Ph-ERK / Ph-JNK / Ph-Akt: a decrease ↓; an increase ↑; no effect —. The settings on record: for ASMA expression / Akt activation / ERK activation / JNK activation / collagen expression / tenascin-C expression: 10 μM inhibitor, result in words; for ASMA / Ph-Akt / Ph-ERK / Ph-JNK / Collagen / Tenascin-C: inhibitor 10 μM, serum-free medium, Western blotting; for ASMA / Ph-Akt / Ph-ERK / Ph-JNK: cell layer; for Collagen / Tenascin-C: culture medium. Format: cell-based, human. An excerpt:
(§3) Fibroblasts were derived from lung tissue obtained at autopsy from scleroderma patients (SLF) and from age-, race-, and sex-matched normal subjects (NLF) and cultured as previously described (44). Cells were used in passages 2-4. The group of scleroderma patients fulfilled the criteria of American college of Rheumatology for the diagnosis of scleroderma with lung involvement. Normal human lung tissue was obtained from the Brain and Tissue Bank for Developmental Disorders (Baltimore, Md.) or from the National Disease Research Interchange (Philadelphia, Pa.). Scleroderma lung tissue was obtained from the Division of Pathology and Laboratory Medicine at the Medical University of South Carolina (MUSC). The study was approved by the Institutional Review Board for Human Subject Research at the MUSC.
(§4) U0126 (MEK inhibitor), SP600125 (JNK inhibitor), LY294002 (PI3 kinase inhibitor) and Akt inhibitor VIII were purchased from Calbiochem and dissolved in DMSO (mM). Cells in 6-well plates were treated with 10 μM of inhibitors in serum-free medium for 6 h (U0126) or 24 h for the other inhibitors prior to the harvesting of cells and medium.
(§5) Cell layers were harvested in boiling SDS-PAGE sample buffer; medium was dialyzed, lyophilized, and resuspended in sample buffer. Aliquots of culture medium or of cell layer representing material derived from the same number of cells was probed using the following primary antibodies and appropriate secondary antibodies. Culture medium: goat anti-human collagen I (AB758P) and rabbit anti-human tenascin-C (AB19011) from Chemicon International (Temecula, Calif.). Cell layer: rabbit antibodies against PKCα (sc-208), PKCε (sc-214), activated JNK (sc-12882), activated Akt Thr 308 (sc-166646R) and caveolin-1 (sc-894) from Santa Cruz Biotechnology (Santa Cruz, Calif.); rabbit antibodies against ERK 1/2 (9102), activated ERK 1/2 (9106), JNK (9252), Akt (9272), MEK 1/2 (9122), and activated MEK 1/2 (9121) from Cell Signaling (Beverly, Mass.); mouse monoclonal anti-ASMA (clone 1A4) from Sigma (Saint Louis, Mo.), and mouse monoclonal anti-actin (MAB1501) from Chemicon International (Temecula, Calif.).
(§6) Immunoreactive bands were quantified by densitometry using the Image 1.32J NIH software. For statistical analysis the raw densitometric data were processed and analyzed using the Prism 3.0 (GraphPad Software Inc.) statistical analysis software.

The subject of experiment [4] is scleroderma lung fibroblasts (SLF). Nature of the experiment: Kinase (signaling) inhibitor treatment of SLF, Western blotting. Format: cell-based, human. Also on record: key to Collagen / Tenascin-C / ASMA / Ph-ERK / Ph-JNK / Ph-Akt: a decrease ↓; an increase ↑; no effect —. The conditions noted are these: for ASMA expression / Akt activation / ERK activation / JNK activation / collagen expression / tenascin-C expression: 10 μM inhibitor, result in words; for ASMA / Ph-Akt / Ph-ERK / Ph-JNK / Collagen / Tenascin-C: inhibitor 10 μM, serum-free medium, Western blotting; for ASMA / Ph-Akt / Ph-ERK / Ph-JNK: cell layer; for Collagen / Tenascin-C: culture medium.
Text: as §3, §4, §5, §6

Setting [5] is: any concentration tested (1, 3, and 5 μM).

Entries after “also recorded” stand apart in the source; their conditions may differ. Where no end group is shown, it is not given here.

Turning to “B: CSD subdomain B (89-95) synthesized in fusion with the Antennapedia internalization sequence (FTTFTVT; also: fused to Antennapedia internalization sequence; UniProt Q03135 89-95, looked up, fragment)”, the collagen expression result in experiment [1] (setting [5]) and in experiment [2] (setting [5]) was “did not inhibit” throughout. The ASMA expression result in experiment [1] and in experiment [2] was “did not inhibit” each time. Moreover, in the experiment on eNOS, the eNOS activity entry is “most strongly inhibited”.

Consider “A: CSD subdomain A (82-88 amino acids) synthesized in fusion with the Antennapedia internalization sequence (DGIWKAS; also: fused to Antennapedia internalization sequence; UniProt Q03135 82-88, looked up, fragment)”, for which the collagen expression result in experiment [1] (setting [5]) and in experiment [2] (setting [5]) was “did not inhibit” throughout. Further, the ASMA expression entry in experiment [1] and in experiment [2] was “did not inhibit” in each case.

For the compound `O=c1[nH]c2ccccc2n1C1CCN(Cc2ccc(-c3nc4cc5[nH]cnc5cc4nc3-c3ccccc3)cc2)CC1` [Akt inhibitor VIII], in experiment [3], the ASMA expression entry was “no effect”, the Akt activation entry is “inhibited”, the ERK activation entry was “enhanced” and the JNK activation result is on record as “no effect”. Moreover, in experiment [3], the collagen expression result was “inhibited”, the tenascin-C expression entry is recorded as “inhibited”, the ASMA entry is on record as “—” and the Ph-Akt result is listed as “↓”. Also, in experiment [3], the Ph-ERK result is “↑”, the Ph-JNK entry is listed as “—”, the Collagen result is recorded as “↓” and the Tenascin-C entry is on record as “↓”. For the same compound, in experiment [4], the ASMA expression result is recorded as “inhibited”, the Akt activation entry is listed as “inhibited”, the ERK activation result is “enhanced” and the JNK activation result is listed as “enhanced”. In experiment [4], the collagen expression result is “no effect”, the tenascin-C expression entry is “no effect”, the ASMA entry is recorded as “↓” and the Ph-Akt entry is reported as “↓”. Besides, in experiment [4], the Ph-ERK entry was “↑”, the Ph-JNK entry was “↑”, the Collagen result is on record as “—” and the Tenascin-C entry is recorded as “—”.

As for “BC: CSD subdomain BC (89-101) synthesized in fusion with the Antennapedia internalization sequence (FTTFTVTKYWFYR; also: fused to Antennapedia internalization sequence; UniProt Q03135 89-101, looked up, fragment)”, the collagen expression result in experiment [1] (3 μM peptide) and in experiment [2] (3 μM peptide) was “completely inhibited” throughout. The “inhibition of ASMA expression” value in experiment [1] (5 μM peptide) and in experiment [2] was “about 80%” each time. Besides, the ASMA expression entry in experiment [1] and in experiment [2] was “inhibited” each time. Besides, the eNOS activity entry with eNOS is “also inhibited”.

For the compound `Oc1c2ccccc2c2c3c(cccc13)N=N2` [SP600125], in experiment [3], the ASMA expression entry is “no effect”, the ASMA result is on record as “—”, the Ph-Akt result was “↓” and the Ph-ERK entry was “↓”. In addition, in experiment [3], the Ph-JNK result is recorded as “↓”, the Collagen entry is on record as “↓” and the Tenascin-C result is given as “↓”. Besides, in experiment [4], the ASMA result was “↓”, the Ph-Akt result is listed as “↓”, the Ph-ERK result was “↓” and the Ph-JNK result is reported as “↓”. In experiment [4], the Collagen entry was “↓” and the Tenascin-C entry is given as “↓”.

Consider “C: CSD subdomain C (96-101) synthesized in fusion with the Antennapedia internalization sequence (KYWFYR; also: fused to Antennapedia internalization sequence; UniProt Q03135 96-101, looked up, fragment)”, for which, in experiment [1] (5 μM peptide), the “inhibition of collagen expression” value is reported as “approximately 50%”. Besides, in experiment [2], the “inhibition of ASMA expression” value is listed as “approximately 50%”, the “inhibition of collagen expression” value was “approximately 50%” and the ASMA expression entry was “inhibited”.

Take `O=c1cc(N2CCOCC2)oc2c(-c3ccccc3)cccc12` [LY294002]: in experiment [3], the ASMA expression entry was “no effect”, the JNK activation result was “no effect”, the ASMA result is recorded as “—” and the Ph-Akt result is reported as “↓”. For the same compound, in experiment [3], the Ph-ERK entry is “↑”, the Ph-JNK entry was “—”, the Collagen result is “↓” and the Tenascin-C result is on record as “↓”. In experiment [4], the JNK activation entry was “no effect”, the ASMA result is on record as “↓”, the Ph-Akt entry is “↓” and the Ph-ERK result is listed as “↑”. Further, in experiment [4], the Ph-JNK result is reported as “—”, the Collagen entry is listed as “↓” and the Tenascin-C result was “↓”.

On to “AB: CSD subdomain AB (82-95) synthesized in fusion with the Antennapedia internalization sequence (DGIWKASFTTFTVT; also: fused to Antennapedia internalization sequence; UniProt Q03135 82-95, looked up, fragment)”, for which the “inhibition of collagen expression” value in experiment [1] (5 μM peptide) and in experiment [2] was “approximately 50%” each time. Moreover, the ASMA expression entry in experiment [1] and in experiment [2] was “did not inhibit” in each case. Further, in the experiment on eNOS, the eNOS activity result was “also inhibited”.

Regarding `N#CC(=C(/N)Sc1ccccc1N)/C(C#N)=C(\N)Sc1ccccc1N` [Peptide U0126, U0126], in experiment [3], the ASMA expression result is on record as “unaffected; also recorded: little or no effect”, the Akt activation result is on record as “little or no effect”, the ERK activation entry was “blocked” and the JNK activation result was “little or no effect”. Moreover, in experiment [3], the collagen expression entry is listed as “blocked”, the tenascin-C expression result is “inhibited; also recorded: blocked”, the ASMA result is reported as “—” and the Ph-Akt entry was “—”. For the same compound, in experiment [3], the Ph-ERK result is on record as “↓”, the Ph-JNK entry is “—”, the Collagen result is “↓” and the Tenascin-C result was “↓”. Further, in experiment [4], the ASMA expression result was “unaffected; also recorded: little or no effect”, the Akt activation entry is “little or no effect”, the ERK activation result is recorded as “blocked” and the JNK activation result was “little or no effect”. In addition, in experiment [4], the collagen expression entry is on record as “blocked”, the tenascin-C expression entry was “inhibited; also recorded: blocked”, the ASMA entry is reported as “—” and the Ph-Akt result was “—”. In experiment [4], the Ph-ERK result is recorded as “↓”, the Ph-JNK entry is “—”, the Collagen result is listed as “↓” and the Tenascin-C entry is given as “↓”.

The record behind these values is patent US8058227B2, “Method of treating fibrosis in a subject in need thereof comprising administering a composition comprising a CSD” (Medical University of South Carolina, priority 2006, dated 2011).
